Active and inactive are the calls of the source. No rule for the calls is given here.
Key:
Experiment in all cases: kinase panel binding selectivity, selectivity assay, biochemical, KINOMEscan (AID 1982)
[1] = system: EPHB1; conditions: KINOMEscan 353-kinase binding panel, qPCR, at 10 µM, stronger effect = lower value
[2] = target: cAMP-dependent protein kinase catalytic subunit PRKX (Homo sapiens) (UniProt P51817); conditions: KINOMEscan 353-kinase binding panel, qPCR, at 10 µM, stronger effect = lower value
[3] = system: NEK6; conditions: KINOMEscan 353-kinase binding panel, qPCR, at 10 µM, stronger effect = lower value
[4] = system: RPS6KA1(Kin.Dom.1); conditions: KINOMEscan 353-kinase binding panel, qPCR, at 10 µM, stronger effect = lower value
[5] = system: EPHB2; conditions: KINOMEscan 353-kinase binding panel, qPCR, at 10 µM, stronger effect = lower value
[6] = target: Mitogen-activated protein kinase kinase kinase kinase 5 (Homo sapiens) (UniProt Q9Y4K4); conditions: KINOMEscan 353-kinase binding panel, qPCR; MAP4K5; at 10 µM; stronger effect = lower value
[7] = target: Protein kinase C delta type (Homo sapiens) (UniProt Q05655); conditions: KINOMEscan 353-kinase binding panel, qPCR; PRKCD; at 10 µM; stronger effect = lower value
[8] = system: YANK2; conditions: KINOMEscan 353-kinase binding panel, qPCR, at 10 µM, stronger effect = lower value
[9] = system: ERK5; conditions: KINOMEscan 353-kinase binding panel, qPCR, at 10 µM, stronger effect = lower value
[10] = target: NT-3 growth factor receptor (Homo sapiens) (UniProt Q16288); conditions: KINOMEscan 353-kinase binding panel, qPCR; TRKC; at 10 µM; stronger effect = lower value
[11] = system: MRCKB; conditions: KINOMEscan 353-kinase binding panel, qPCR, at 10 µM, stronger effect = lower value
[12] = system: PAK4; conditions: KINOMEscan 353-kinase binding panel, qPCR, at 10 µM, stronger effect = lower value
[13] = system: CDC2L1; conditions: KINOMEscan 353-kinase binding panel, qPCR, at 10 µM, stronger effect = lower value
[14] = target: Rho-associated protein kinase 2 (Homo sapiens) (UniProt O75116); conditions: KINOMEscan 353-kinase binding panel, qPCR; ROCK2; at 10 µM; stronger effect = lower value
[15] = target: Macrophage colony-stimulating factor 1 receptor (Homo sapiens) (UniProt P07333); conditions: KINOMEscan 353-kinase binding panel, qPCR; CSF1R; at 10 µM; stronger effect = lower value
[16] = target: Tyrosine-protein kinase Blk (Homo sapiens) (UniProt P51451); conditions: KINOMEscan 353-kinase binding panel, qPCR, at 10 µM, stronger effect = lower value
[17] = target: Death-associated protein kinase 3 (Homo sapiens) (UniProt O43293); conditions: KINOMEscan 353-kinase binding panel, qPCR; DAPK3; at 10 µM; stronger effect = lower value
[18] = target: Serine/threonine-protein kinase PAK 5 (Homo sapiens) (UniProt Q9P286); conditions: KINOMEscan 353-kinase binding panel, qPCR; PAK7/PAK5; at 10 µM; stronger effect = lower value
[19] = system: DCAMKL3; conditions: KINOMEscan 353-kinase binding panel, qPCR, at 10 µM, stronger effect = lower value
[20] = target: Fibroblast growth factor receptor 3 (Homo sapiens) (UniProt P22607); conditions: KINOMEscan 353-kinase binding panel, qPCR, at 10 µM, stronger effect = lower value
[21] = system: RPS6KA6(Kin.Dom.1); conditions: KINOMEscan 353-kinase binding panel, qPCR, at 10 µM, stronger effect = lower value
[22] = system: ACVRL1; conditions: KINOMEscan 353-kinase binding panel, qPCR, at 10 µM, stronger effect = lower value
[23] = system: PKMYT1; conditions: KINOMEscan 353-kinase binding panel, qPCR, at 10 µM, stronger effect = lower value
[24] = target: Hepatocyte growth factor receptor (Homo sapiens) (UniProt P08581); conditions: KINOMEscan 353-kinase binding panel, qPCR; MET; at 10 µM; stronger effect = lower value
[25] = target: MAP/microtubule affinity-regulating kinase 3 (Homo sapiens) (UniProt P27448); conditions: KINOMEscan 353-kinase binding panel, qPCR; MARK3; at 10 µM; stronger effect = lower value
[26] = system: MAP4K3; conditions: KINOMEscan 353-kinase binding panel, qPCR, at 10 µM, stronger effect = lower value
[27] = target: Serine/threonine-protein kinase MARK2 (Homo sapiens) (UniProt Q7KZI7); conditions: KINOMEscan 353-kinase binding panel, qPCR, at 10 µM, stronger effect = lower value
[28] = system: MAP3K4; conditions: KINOMEscan 353-kinase binding panel, qPCR, at 10 µM, stronger effect = lower value
[29] = system: INSRR; conditions: KINOMEscan 353-kinase binding panel, qPCR, at 10 µM, stronger effect = lower value
[30] = target: Mitogen-activated protein kinase 12 (Homo sapiens) (UniProt P53778); conditions: KINOMEscan 353-kinase binding panel, qPCR; p38-gamma; at 10 µM; stronger effect = lower value
[31] = system: LOK; conditions: KINOMEscan 353-kinase binding panel, qPCR, at 10 µM, stronger effect = lower value
[32] = system: TAK1; conditions: KINOMEscan 353-kinase binding panel, qPCR, at 10 µM, stronger effect = lower value
[33] = target: Ribosomal protein S6 kinase alpha-5 (Homo sapiens) (UniProt O75582); conditions: KINOMEscan 353-kinase binding panel, qPCR, at 10 µM, stronger effect = lower value
[34] = target: Cyclin-dependent kinase 7 (Homo sapiens) (UniProt P50613); conditions: KINOMEscan 353-kinase binding panel, qPCR; CDK7; at 10 µM; stronger effect = lower value
[35] = system: RIOK3; conditions: KINOMEscan 353-kinase binding panel, qPCR, at 10 µM, stronger effect = lower value

Measured: percent of control binding

Fibroblast growth factor receptor 3 (Homo sapiens), sequence (P22607 whole entry, looked up): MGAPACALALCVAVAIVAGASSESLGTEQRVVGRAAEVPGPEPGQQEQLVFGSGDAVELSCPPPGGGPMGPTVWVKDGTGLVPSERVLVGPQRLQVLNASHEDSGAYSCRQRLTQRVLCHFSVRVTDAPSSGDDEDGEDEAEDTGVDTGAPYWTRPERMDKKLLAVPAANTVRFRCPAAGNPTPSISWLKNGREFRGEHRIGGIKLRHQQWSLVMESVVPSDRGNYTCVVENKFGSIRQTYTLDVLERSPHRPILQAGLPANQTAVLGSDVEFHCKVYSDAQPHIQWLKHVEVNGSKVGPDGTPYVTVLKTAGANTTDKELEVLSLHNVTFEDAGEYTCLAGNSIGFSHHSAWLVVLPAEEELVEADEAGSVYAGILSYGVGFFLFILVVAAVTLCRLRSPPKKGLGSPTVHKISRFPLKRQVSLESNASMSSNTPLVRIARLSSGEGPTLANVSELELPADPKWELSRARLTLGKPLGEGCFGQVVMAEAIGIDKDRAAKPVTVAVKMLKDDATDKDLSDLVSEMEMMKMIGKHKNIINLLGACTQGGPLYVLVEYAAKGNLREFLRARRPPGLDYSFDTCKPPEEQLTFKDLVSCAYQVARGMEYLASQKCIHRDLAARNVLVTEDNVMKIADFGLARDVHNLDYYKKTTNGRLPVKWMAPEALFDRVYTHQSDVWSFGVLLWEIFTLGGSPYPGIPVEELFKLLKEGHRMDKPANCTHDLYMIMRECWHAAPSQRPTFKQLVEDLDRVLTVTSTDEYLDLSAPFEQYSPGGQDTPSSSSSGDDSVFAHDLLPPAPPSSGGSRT
Ribosomal protein S6 kinase alpha-5 (Homo sapiens), sequence (O75582 whole entry, looked up): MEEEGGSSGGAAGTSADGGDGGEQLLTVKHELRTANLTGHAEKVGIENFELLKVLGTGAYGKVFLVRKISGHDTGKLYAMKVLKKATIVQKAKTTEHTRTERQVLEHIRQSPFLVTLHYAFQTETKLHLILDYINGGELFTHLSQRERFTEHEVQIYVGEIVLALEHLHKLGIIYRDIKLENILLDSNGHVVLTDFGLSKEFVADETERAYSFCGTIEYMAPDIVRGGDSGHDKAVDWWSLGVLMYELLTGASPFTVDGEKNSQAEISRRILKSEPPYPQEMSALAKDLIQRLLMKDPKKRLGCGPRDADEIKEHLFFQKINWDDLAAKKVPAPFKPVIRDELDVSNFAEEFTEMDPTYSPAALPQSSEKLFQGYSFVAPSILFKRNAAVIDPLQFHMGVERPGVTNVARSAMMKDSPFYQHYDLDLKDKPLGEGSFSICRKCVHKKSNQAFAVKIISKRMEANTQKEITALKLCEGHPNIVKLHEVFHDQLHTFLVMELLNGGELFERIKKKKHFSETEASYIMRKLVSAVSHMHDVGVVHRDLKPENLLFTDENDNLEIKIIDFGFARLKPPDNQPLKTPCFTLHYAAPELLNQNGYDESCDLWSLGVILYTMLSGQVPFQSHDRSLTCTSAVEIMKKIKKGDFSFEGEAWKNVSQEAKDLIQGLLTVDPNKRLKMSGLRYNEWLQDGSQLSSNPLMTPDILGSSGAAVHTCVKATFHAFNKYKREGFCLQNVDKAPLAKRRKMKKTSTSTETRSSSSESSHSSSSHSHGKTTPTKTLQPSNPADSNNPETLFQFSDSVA
Mitogen-activated protein kinase 12 (Homo sapiens), sequence (P53778 whole entry, looked up): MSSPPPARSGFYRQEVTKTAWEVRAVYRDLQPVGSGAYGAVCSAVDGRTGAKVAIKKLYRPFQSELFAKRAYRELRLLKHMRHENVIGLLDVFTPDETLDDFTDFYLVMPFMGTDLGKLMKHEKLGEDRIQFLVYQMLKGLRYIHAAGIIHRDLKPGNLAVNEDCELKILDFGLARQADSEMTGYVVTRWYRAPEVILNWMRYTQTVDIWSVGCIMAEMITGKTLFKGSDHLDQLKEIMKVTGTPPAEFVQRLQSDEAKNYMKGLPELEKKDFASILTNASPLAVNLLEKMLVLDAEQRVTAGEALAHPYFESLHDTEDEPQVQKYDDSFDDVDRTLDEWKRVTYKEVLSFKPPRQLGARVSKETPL
Tyrosine-protein kinase Blk (Homo sapiens), sequence (P51451 whole entry, looked up): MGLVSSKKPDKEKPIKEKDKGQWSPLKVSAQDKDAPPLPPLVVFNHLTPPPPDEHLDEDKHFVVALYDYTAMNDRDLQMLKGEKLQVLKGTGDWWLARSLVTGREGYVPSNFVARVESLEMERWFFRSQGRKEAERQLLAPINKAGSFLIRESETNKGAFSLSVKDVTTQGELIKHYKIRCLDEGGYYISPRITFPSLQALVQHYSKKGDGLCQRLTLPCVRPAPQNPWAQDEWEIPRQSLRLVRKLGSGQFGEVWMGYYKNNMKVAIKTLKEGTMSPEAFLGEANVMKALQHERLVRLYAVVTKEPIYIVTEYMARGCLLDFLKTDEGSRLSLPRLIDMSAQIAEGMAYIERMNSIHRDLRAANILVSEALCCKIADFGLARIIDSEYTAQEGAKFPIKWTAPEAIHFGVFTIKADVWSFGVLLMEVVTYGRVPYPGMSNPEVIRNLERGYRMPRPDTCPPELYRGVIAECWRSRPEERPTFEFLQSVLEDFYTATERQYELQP
Cyclin-dependent kinase 7 (Homo sapiens), sequence (P50613 whole entry, looked up): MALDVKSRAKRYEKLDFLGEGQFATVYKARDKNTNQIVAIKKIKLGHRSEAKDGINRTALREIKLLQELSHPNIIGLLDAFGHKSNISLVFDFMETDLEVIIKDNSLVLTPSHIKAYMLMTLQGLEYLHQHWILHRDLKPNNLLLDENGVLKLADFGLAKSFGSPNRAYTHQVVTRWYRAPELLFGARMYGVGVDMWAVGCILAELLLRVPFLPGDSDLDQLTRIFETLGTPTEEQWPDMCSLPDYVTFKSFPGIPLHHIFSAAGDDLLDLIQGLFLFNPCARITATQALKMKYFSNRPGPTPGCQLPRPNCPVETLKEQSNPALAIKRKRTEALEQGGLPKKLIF
Rho-associated protein kinase 2 (Homo sapiens), sequence (O75116 whole entry, looked up): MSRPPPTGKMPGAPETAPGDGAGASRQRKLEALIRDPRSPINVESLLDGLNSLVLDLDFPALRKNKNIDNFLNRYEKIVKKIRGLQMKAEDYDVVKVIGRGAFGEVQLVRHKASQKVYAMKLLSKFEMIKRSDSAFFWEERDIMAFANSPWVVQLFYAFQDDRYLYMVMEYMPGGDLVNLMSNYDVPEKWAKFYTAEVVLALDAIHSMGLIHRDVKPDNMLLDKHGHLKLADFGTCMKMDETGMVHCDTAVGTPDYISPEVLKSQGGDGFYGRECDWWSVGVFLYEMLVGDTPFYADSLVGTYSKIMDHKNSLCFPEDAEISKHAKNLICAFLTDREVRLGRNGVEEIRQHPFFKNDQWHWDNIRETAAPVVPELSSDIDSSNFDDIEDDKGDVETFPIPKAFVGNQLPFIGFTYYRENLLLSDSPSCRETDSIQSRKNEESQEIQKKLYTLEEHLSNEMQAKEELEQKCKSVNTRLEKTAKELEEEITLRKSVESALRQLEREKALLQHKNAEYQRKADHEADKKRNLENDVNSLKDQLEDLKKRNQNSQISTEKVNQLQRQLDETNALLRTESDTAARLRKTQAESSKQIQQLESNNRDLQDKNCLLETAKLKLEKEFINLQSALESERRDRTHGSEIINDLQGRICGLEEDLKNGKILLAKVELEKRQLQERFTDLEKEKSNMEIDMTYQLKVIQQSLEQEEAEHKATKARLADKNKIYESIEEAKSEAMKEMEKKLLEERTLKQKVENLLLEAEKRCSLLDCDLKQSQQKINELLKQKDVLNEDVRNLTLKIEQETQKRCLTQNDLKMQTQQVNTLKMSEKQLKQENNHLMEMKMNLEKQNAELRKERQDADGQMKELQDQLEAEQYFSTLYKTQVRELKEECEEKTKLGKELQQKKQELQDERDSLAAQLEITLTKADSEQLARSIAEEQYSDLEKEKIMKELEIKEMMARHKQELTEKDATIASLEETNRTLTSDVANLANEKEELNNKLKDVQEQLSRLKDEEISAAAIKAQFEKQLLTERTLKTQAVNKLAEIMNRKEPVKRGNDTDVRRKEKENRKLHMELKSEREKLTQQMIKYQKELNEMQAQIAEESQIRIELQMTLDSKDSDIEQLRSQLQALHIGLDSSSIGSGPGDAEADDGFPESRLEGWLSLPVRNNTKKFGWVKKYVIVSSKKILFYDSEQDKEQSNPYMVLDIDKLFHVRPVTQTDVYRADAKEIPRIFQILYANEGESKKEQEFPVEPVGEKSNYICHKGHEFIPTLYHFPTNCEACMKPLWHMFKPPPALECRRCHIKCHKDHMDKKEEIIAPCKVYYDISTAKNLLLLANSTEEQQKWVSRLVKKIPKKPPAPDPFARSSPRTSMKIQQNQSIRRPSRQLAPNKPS
Death-associated protein kinase 3 (Homo sapiens), sequence (O43293 whole entry, looked up): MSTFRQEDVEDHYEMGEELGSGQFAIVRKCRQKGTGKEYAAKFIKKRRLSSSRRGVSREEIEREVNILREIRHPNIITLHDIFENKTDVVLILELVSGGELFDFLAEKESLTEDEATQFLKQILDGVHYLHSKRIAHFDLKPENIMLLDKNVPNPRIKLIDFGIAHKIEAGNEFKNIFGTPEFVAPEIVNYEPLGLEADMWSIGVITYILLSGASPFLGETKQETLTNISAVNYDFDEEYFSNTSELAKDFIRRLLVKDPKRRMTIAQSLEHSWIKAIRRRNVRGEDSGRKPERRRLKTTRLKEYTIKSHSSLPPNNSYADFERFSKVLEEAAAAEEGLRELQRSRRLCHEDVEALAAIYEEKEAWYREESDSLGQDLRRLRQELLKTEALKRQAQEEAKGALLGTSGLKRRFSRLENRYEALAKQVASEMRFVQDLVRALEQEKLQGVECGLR
cAMP-dependent protein kinase catalytic subunit PRKX (Homo sapiens), sequence (P51817 whole entry, looked up): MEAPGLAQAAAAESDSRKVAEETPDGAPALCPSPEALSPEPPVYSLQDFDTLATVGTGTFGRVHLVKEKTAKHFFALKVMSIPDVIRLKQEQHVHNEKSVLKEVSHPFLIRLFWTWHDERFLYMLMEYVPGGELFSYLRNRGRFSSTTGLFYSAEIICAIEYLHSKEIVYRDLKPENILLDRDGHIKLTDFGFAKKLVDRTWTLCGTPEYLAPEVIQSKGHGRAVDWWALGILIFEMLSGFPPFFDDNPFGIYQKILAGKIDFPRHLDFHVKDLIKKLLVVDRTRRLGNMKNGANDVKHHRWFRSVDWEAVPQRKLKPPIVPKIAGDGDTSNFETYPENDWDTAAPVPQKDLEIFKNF

Cc1cc2nc(NCCCO)n(CC(=O)c3cc(C(C)(C)C)c(O)c(C(C)(C)C)c3)c2cc1C
inactive: [1] 95% | [2] 100% | [3] 93% | [4] 59% | [5] 96% | [6] 83% | [7] 100% | [8] 100% | [9] 100% | [10] 100% | [11] 100% | [12] 92% | [13] 81% | [14] 59% | [15] 72% | [16] 99% | [17] 100% | [18] 79% | [19] 100% | [20]; FGFR3(G697C) 100% | [20]; FGFR3 80% | [21] 97% | [22] 100% | [23] 100% | [24] 97% | [25] 100% | [26] 100% | [27] 100% | [28] 90% | [29] 100% | [30] 95% | [31] 95% | [32] 100% | [33]; RPS6KA5(Kin.Dom.1) 100% | [33]; RPS6KA5(Kin.Dom.2) 100% | [34] 64% | [35] 100%
